Where “and” joins values, the source holds several entries; their conditions need not be identical. Equal entries are not always repeated.

This note sets out measurements from patent US20190070208A1, “USE OF TRIACETYL-3-HYDROXYPHENYLADENOSINE IN PREPARING PHARMACEUTICALS FOR TREATMENT OF ATHEROSCLEROSIS” (priority 2016, published 2019).

Holding throughout (format): in vivo
Common to all, as to set-up: unit not given here

Assay [1] relates to circulating blood inflammatory mononuclear cells (Ly6C^hi). As to the kind of experiment: Circulating blood inflammatory (Ly6Chi) mononuclear cells of high-fat-fed apoE-/- mice (flow cytometry). The conditions noted are these: gavage once a day, high-fat diet apoE-/- mice. The protocol: (§1) ApoE-/-mice (C57BL background), 5-7 weeks old, body weight 18-22 g, male, SPF grade; Purchased from Beijing institute of Laboratory Animal Science.
(§2) After 7 days of adaptive feeding, animals were randomly divided into a high-fat feedstuff group (n=7), an MMH007 low-dose group (50 mg/kg, n=7), an IMMH007 medium-dose group (100 mg/kg, n=7), and an IMMH007 high-dose group (200 mg/kg, n=9), and they were administered once a day by gavage. The animals were fed in the Second Department of Animal Experiment Center of the Institute of Materia Medica (IMM) at Chinese Academy of Medical Sciences (CAMS); the feeding condition was SPF grade, the temperature was 21±2 DEG C, relative humidity was 50±5%, lighting cycle was 12/12, and 5 per cage. All groups were given high-fat diet (70% of basal diet plus 20% of lard and 0.2% of cholesterol) and the animals were free to take food and drink. The feedstuff was produced by Beijing HFK Bioscience Co., Ltd. Body weight was recorded once every week during the experiment.
(§3) The animals were fasted for 12 hours and the following cells were extracted:
(§4) Recirculating blood cells: 50 ul of blood was taken by cardiocentesis, placed in 450 ul of heparin anticoagulant, 1 ml of red blood cell lysis buffer was added, lysed for 10 minutes, centrifuged at 1800 r for 3 min, the supernatant was aspirated, and 100 ul of PBS suspension cells were obtained for subsequent use. The mouse was taken blood from the angular vein to be dead and serum was separated and stored at −80 DEG C.
(§5) Antibodies were added to the above blood cells:
(§6) 3 ul of CD90-PE, 3 ul of B220-PE, 3 ul of CD49b-PE, 3 ul of NK1.1-PE, 3 ul of Ly-6G-PE, 6 ul of CD11b-percp, and 3 ul of Ly-6C-FITC, a single positive tube and a blank control tube were provided, they were incubated with smoothie for 30 min, washed 3 times with PBS, and re-selected cells with 400 ul of PBS, filtered, and flow cytometry was carried out. The mononuclear cells were identified as CD11b^hiCD90^loB220^loCD49b^loNK1.1^loLy-6G^lo cells. […]
For orientation: Flow cytometry measures light scatter and fluorescence of single cells or particles in a stream.

Assay [2] concerns circulating blood mononuclear cells. As to the kind of experiment: Circulating blood mononuclear cells of high-fat-fed apoE-/- mice (flow cytometry). The conditions noted are these: gavage once a day, high-fat diet apoE-/- mice. The protocol: as §1, §2, §3, §4, §5, §6
Assay [3] has the same test system. The experiment in a line: Circulating blood mononuclear cells of high-fat-fed Syrian golden hamsters (whole blood cell analyzer). The conditions noted are these: gavage twice a day, high-fat feedstuff hamsters, individual animal values (n=13). The protocol: […] Syrian golden hamsters (LVG hamsters, introduced from Charles River Laboratories) aged 6-8 weeks, weighing 90-120 g, male, SPF grade and purchased from Beijing Vital River Laboratory Animal Technology Co., Ltd.
After 7 days of adaptive feeding, animals were randomly divided into a normal control group (n=13), a high-fat feedstuff group (n=13), an IMMH007 low-dose group (50 mg/kg, n=13), an IMMH007 medium-dose group (100 mg/kg, n=13), and an IMMH007 high-dose group (200 mg/kg, n=13), and they were administered twice a day by gavage. The animals were fed in the Second Department of Animal Experiment Center of the Institute of Materia Medica (IMM) at Chinese Academy of Medical Sciences (CAMS); the feeding condition was SPF grade, the temperature was 21±2 DEG C, relative humidity was 50±5%, lighting cycle was 12/12, and 5 per cage. The normal group was fed with normal basal feedstuff, and the high-fat feedstuff group was fed with high fat feedstuff (79.8% of basal feedstuff, 20% of lard, and 0.2% of cholesterol), and the animals were free to take food and drink. The feedstuff was produced by Beijing HFK Bioscience Co., Ltd.
The animals were fasted for 12 hours, and about 200 ul of blood was taken from the canthus of each eye, the blood was dissolved in 30ul of EDTA-2K anticoagulant (20g/L, prepared with normal saline), mixed slightly to avoid coagulation, and the whole blood cells were analyzed by a whole blood cell analyzer.

Where [4] appears, read: IMM-H007 50 mg/kg, individual animal values (n=7), 50 mg/kg.
The mark [5] stands for this setting: IMM-H007 100 mg/kg, individual animal values (n=7), 100 mg/kg.
[6] abbreviates: IMM-H007 200 mg/kg, individual animal values (n=9), 200 mg/kg.

Consider `CC(=O)OCC1OC(n2cnc3c(Nc4cccc(O)c4)ncnc32)C(OC(C)=O)C1OC(C)=O` (stereo not drawn) [IMM-H007, Triacetyl-3-Hydroxyphenyladenosine], for which the “circulating blood inflammatory mononuclear cells” value in assay [1] (setting [4]) is 0.33 and 0.86 and 0.18 and 0.23 and 0.89 and 0.16 and 0.49; in assay [1] (setting [5]) it was 0.31 and 0.19 and 0.32 and 0.29 and 0.30 and 0.89 and 0.26; in assay [1] (setting [6]), 0.19 and 0.35 and 0.17 and 0.20 and 0.30 and 0.13 and 0.15 and 0.28 and 0.21. The “circulating blood mononuclear cells” value in assay [2] (setting [4]) is 0.54 and 0.49 (2×) and 1.23 and 0.66 and 0.63 and 0.26; in assay [2] (setting [5]), 0.79 and 0.48 and 0.30 and 0.14 and 0.29 and 0.27 and 0.25; in assay [2] (setting [6]) it was 0.18 (2×) and 0.69 and 0.28 and 0.24 and 0.27 and 0.23 and 0.21 and 0.10; in assay [3] (IMM-H007 50 mg/kg, 50 mg/kg), 6.63 and 5.31 and 7.58 and 11.2 and 10.1 and 11 and 10.4 and 9.08 and 6.95 and 8.24 and 9.21 and 6.5 and 8.91; in assay [3] (IMM-H007 100 mg/kg, 100 mg/kg) it was 6.23 and 4.18 and 3.87 and 6.05 and 6.02 and 7.99 and 6.79 and 9.61 and 6.42 and 10.4 and 6.8 and 7.54 and 4.56; in assay [3] (IMM-H007 200 mg/kg, 200 mg/kg), 4.42 and 6.33 and 9.94 and 9.51 and 10.3 (2×) and 6.28 and 9.61 and 9.85 and 10.8 and 8.52 and 9.23 and 5.7.
